A word on the Ki: it is the equilibrium dissociation constant of an inhibitor or competing ligand from its target. Read a low Ki as higher affinity. Usually Kd stands for the constant that tells how readily two partners part at equilibrium.

These results are taken from US20020119917A1, “ANTI-INFLAMMATORY PEPTIDES DERIVED FROM C-REACTIVE PROTEIN” (priority 1996, published 2002).

Non-standard residues stand in square brackets, D forms with d. Residues, ends and D or L forms follow the SMILES beside them.

For data set [1], the target named is T1, hLE (Homo sapiens, UniProt P08246).
T1 construct: Neutrophils (1.4 billion) were isolated from whole blood obtained from a single healthy laboratory donor; from tissue; host or cells: neutrophils from whole blood of a single healthy donor
T1 sequence (P08246 30-247 limits assumed): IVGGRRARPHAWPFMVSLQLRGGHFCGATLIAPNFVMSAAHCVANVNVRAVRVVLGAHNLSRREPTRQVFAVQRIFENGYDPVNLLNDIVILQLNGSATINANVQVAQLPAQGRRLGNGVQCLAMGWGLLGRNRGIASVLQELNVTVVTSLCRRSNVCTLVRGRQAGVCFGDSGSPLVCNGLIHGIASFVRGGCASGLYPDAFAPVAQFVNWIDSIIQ
Briefly: Degradation profiles of peptides by RP-HPLC after incubation with hLE. Type of data set: in vitro ADME. To be noted: incubated with hLE in PBS, 37° C., time-scale hours. Here is the method:
Several active peptide inhibitors were dissolved in calcium- and magnesium-free phosphate-buffered saline (PBS), 125 μg/250 μL, mixed with 0.25 aliquots of hLE or hCG in 250 μL PBS and incubated at 37° C. Periodically (1,3,8, and 24 hour), 100 μL samples were removed from the reaction vessel. The samples were diluted with 150 μL of 0.1% TFA, frozen with liquid nitrogen, and stored at −20° C. prior to HPLC analysis.
More insight into the mechanism of inhibition is provided by HPLC time-course elution profiles of peptide 1, incubated with hLE in PBS (FIG. 2). […] The other bonds in peptide 1 are cleaved only after several days of incubation with the enzyme.

Data set [2] has as its target T2, human leukocyte elastase (hLE) (Homo sapiens, UniProt P08246).
T2 construct: Neutrophils (1.4 billion) were isolated from whole blood obtained from a single healthy laboratory donor; from tissue; host or cells: neutrophils from whole blood of a single healthy donor
T2 sequence (P08246 30-247 limits assumed): T1 sequence (P08246 30-247 limits assumed)
Briefly: In-vitro inhibition of hLE (cleavage of MeOSuc-AAPV-NA). It counts as biochemical. Here is the method:
(§1) The enzymatic activity was assayed with MeOSuc-AAPV-NA for hLE determination and Suc-AAPF-NA for hCG determination (both in 100 mM Hepes buffer, pH 7.4, containing 0.05% of the […] detergent Brij-35). The activities of the individual enzymatic fractions were 100% free from cross-contamination. […] The fractions containing hLE and hCG were dialyzed each against 0.1% pyridinium acetate, pH 5.3, divided into 20 aliquots, lyophilized, and stored at −20° C. until use.
Peptides were dissolved in 100 mM Hepes buffer pH 7.4 containing 0.1% Brij-35 with 10% DMSO to yield 600 μM solutions, which were used to make further dilutions with the same buffer, and 80 μL aliquots were added in duplicates to 96-well plates. The substrate, 600 or 900 μM MeOSuc-AAPV-NA in the same buffer with 5% DMSO, was added to each well in addition to the blank wells, and the plate was placed in the plate reader equilibrated to 37° C. (Dynateck MR-6000). Lyophilized aliquots of hLE were dissolved in 1600 μL of 100 mM Hepes buffer without DMSO, and 80 μL of the enzyme solution was added to the peptides and substrate to initiate the reaction. […] The final volume was 240 μL containing: 5% DMSO, 1-200 μM of peptide, 200 μM substrate, and 0.75 μg (about 25 picomol) enzyme.
For hLE, V is determined by fitting a linear equation to the first 6 time-points (10 min) of the kinetics data using the least squares method. […] From calculating the error in the slope of the equation, the relative error for Ki was deduced:
Ki={slope*(1+[S]/Km)}^−1 because Ki=[I]*{(1+[S]/Km)*(Vo/Vi−1)}^−1.
The hLE inhibitory capability of CRP-derived peptides was evaluated by inhibiting the enzymatic cleavage of MeOSuc-AAPV-NA as described in Materials and Methods (section v).

The target in data set [3] is T3, human leukocyte cathepsin G (hCG) (Homo sapiens, UniProt P08311).
T3 construct: Neutrophils (1.4 billion) were isolated from whole blood obtained from a single healthy laboratory donor; from tissue; host or cells: neutrophils from whole blood of a single healthy donor
T3 sequence (P08311 21-244 limits assumed): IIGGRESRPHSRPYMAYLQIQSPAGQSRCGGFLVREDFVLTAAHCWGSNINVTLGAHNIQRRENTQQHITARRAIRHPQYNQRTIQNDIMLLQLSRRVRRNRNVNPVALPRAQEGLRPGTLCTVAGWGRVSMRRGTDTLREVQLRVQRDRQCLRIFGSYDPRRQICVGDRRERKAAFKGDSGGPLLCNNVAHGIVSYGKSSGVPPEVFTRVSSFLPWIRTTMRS
Briefly: In-vitro inhibition of hCG (conversion of Suc-AAPF-NA). It counts as biochemical. The procedure:
as §1
Similar conditions to hLE inhibition experiments ere used except the substrate: 80 μL of 1.8 mM Suc-AAPF-NA. The enzyme was issolved in 800 μL buffer, and the reaction was monitored every 6 min for 1 hour. The final volume was 240 μL containing: 5% DMSO, 1-500 μM peptide, 600 μM substrate, and 1.2 μg enzyme (about 40 picomol).
For hCG, V is determined by fitting a quadratic equation to the total kinetic data (60 min), using the least squares method and calculating V at t=0.
The inhibitory capability of several CRP-derived peptides was evaluated by inhibiting the enzymatic conversion of Suc-AAPF-NA (as described in Materials and Methods (vi) above).

Data set [4] concerns specific receptors on human neutrophils. To be noted: in vitro; cited from earlier work.
Data set [5] has as its target specific receptors on monocytes. To be noted: in vitro; cited from earlier work.
The target in data set [6] is T4, hLE (Homo sapiens, UniProt P08246).
T4 sequence (P08246 30-267): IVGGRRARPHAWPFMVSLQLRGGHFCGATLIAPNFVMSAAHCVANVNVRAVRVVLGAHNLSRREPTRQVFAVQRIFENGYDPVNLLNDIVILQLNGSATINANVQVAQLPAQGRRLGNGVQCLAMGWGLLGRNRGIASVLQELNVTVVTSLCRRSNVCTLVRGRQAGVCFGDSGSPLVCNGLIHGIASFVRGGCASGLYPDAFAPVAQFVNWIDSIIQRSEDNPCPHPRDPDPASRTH
Particulars: CRP as a whole protein; cited from earlier work.

With `CC[C@H](C)[C@H](NC(=O)[C@@H](Cc1c[nH]cn1)NC(=O)[C@H](NC(=O)[C@@H]1CCCN1C(=O)[C@H](C)NC(=O)[C@@H](NC(=O)[C@@H](NC(=O)[C@@H](N)C(C)C)[C@@H](C)O)C(C)C)C(C)C)C(=O)O` [Peptide 8, Val89-Thr-Val-Ala-Pro-(D)Val-(D)His-Ile96] (H-VTVAP[dV][dH]I-OH; N-terminus and C-terminus assumed), in data set [1], the “cleavage by hLE (HPLC time-course elution profile)” value (shortened to “cleavage by hLE”) is recorded as “No observable cleavage products”. For the same compound, the Ki in data set [2] is 490 ± 50 µM.

As to `CC[C@H](C)[C@H](NC(=O)[C@@H](Cc1c[nH]cn1)NC(=O)[C@@H](NC(=O)[C@@H]1CCCN1C(=O)[C@H](C)NC(=O)[C@@H](NC(=O)[C@@H](NC(=O)[C@@H](N)C(C)C)[C@@H](C)O)C(C)C)C(C)C)C(=O)O` [Peptide 6, Val89-Thr-Val-Ala-Pro-Val-(D)His-Ile96] (H-VTVAPV[dH]I-OH; N-terminus and C-terminus assumed), the “cleavage by hLE” value in data set [1] was “No observable cleavage products”. This compound had a Ki in data set [2] of 450 ± 45 µM.

Turning to “H-VTVAPVHI-OH [Peptide 1, Val89-Thr-Val-Ala-Pro-Val-His-Ile96]”, in data set [1], the “cleavage by hLE” value is “cleaved as predicted exclusively at the Val-His bond”. Further, the inhibitory constant (Ki) in data set [2] amounted to 120 ± 15 µM; in data set [3], 1400 ± 200 µM. Further, the “hCG inhibitory capability (in words)” value in data set [3] is “slightly inhibitory”.

In the case of “CRP: plasma protein, major acute phase reactant; five identical sub-units of 206 amino acids forming a cyclic pentamer”, the Kd in data set [4] is roughly 0.05 µM; in data set [5] it was roughly 0.1 µM. For the same compound, the “inhibitory effect on hLE” value in data set [6] was “no inhibitory effect”.
